The test system of series [1] is IL-1β induced chondrocytes. Briefly: Chondroprotective effect: CCK-8 viability of IL-1β induced chondrocytes. The conditions noted are these: LiCl 10 mM, IL-1β 10 ng/mL, 48 h. The format is cell-based, rat. As for the experimental part: The capacity of SLFNP was assessed to protect chondrocytes from deterioration induced by inflammatory cytokines. Chondrocytes were first incubated with SLFNP and then added to the medium 10 ng/mL interleukin-1-beta (IL-1β), a major inflammatory cytokine involved in chronic OA. For comparison, chondrocytes were treated with PBS or LiCl salt (10 mM) before adding IL-1β. In the PBS group, CCK-8 assay found a marked drop of cell viability (37.64% at 48 h). […]

The test system of series [2] is IL-1β induced chondrocytes. Briefly: Live/dead assay of IL-1β induced chondrocytes. The format is cell-based, rat. The conditions noted are these: vs PBS group, IL-1β 10 ng/mL. The method, then:
(§1) Cells were divided into nine groups: (1) Control: chondrocytes treated with SLFNP; (2) IL-1β: chondrocytes treated with 10 ng/mL IL-1β (Gibco, USA) and cultured for 2 days; (3) LiCl+IL-1β: chondrocytes pre-incubated with LiCl for 1 h followed by treatment with 10 ng/mL IL-1β for 2 days; (4) 1 mM SLFNP+IL-1β: chondrocytes pre-incubated with 1 mM SLFNP for 1 h followed by treatment with IL-1β for 2 days; (5) 5 mM SLFNP+IL-1β: chondrocytes pre-incubated with 5 mM SLFNP for 1 h followed by treatment with IL-1β for 2 days; (6) HA+IL-1β: condrocytes pre-incubated with 10 mg/mL HA for 1 h followed by treatment with IL-1β for 2 days; (7) HA+LiCl+IL-1β: chondrocytes pre-incubated with 10 mM LiCl and HA for 1 h followed by treatment with IL-1β for 2 days; (8) HA+1 mM SLFNP+IL-1β: chondrocytes pre-incubated with 1 mM SLFNP and HA for 1 h followed by treatment with IL-1β for 2 days; (9) HA+5 mM SLFNP+IL-1β: chondrocytes pre-incubated with 5 mM SLFNP and HA for 1 h followed by treatment with IL-1β for 2 days.
Cells were treated as the same procedures as described above. Live/dead assays were performed using a live/dead viability assay kit (Invitrogen, USA) after 2 days of culture. Briefly, cells were incubated in a solution containing […] of calcein AM and […] of ethidium homodimer-1 for 40 min at room temperature in the dark. […]

The test system of series [3] is MMP-13. Briefly: Immunofluorescence staining of MMP-13 in IL-1β stimulated chondrocytes. The format is cell-based, rat. The conditions noted are these: pre-incubation before IL-1β 10 ng/mL. The method, then: as §1
After 2 days of culture, cells in the different treatment groups were washed twice with PBS, fixed in 4% formalin for 20 min, and permeabilized with 0.3% Triton X-100 (WN) in PBS for 10 min. After blocking with 5% BSA in PBS for 1 hour at room temperature, primary MMP-13 antibodies were added (1:200 dilution, Abcam, USA) and incubated at 4° C. overnight. […]

In series [4] the test system is MMP3. Briefly: qRT-PCR of MMP3 in IL-1β stimulated chondrocytes. The format is cell-based, rat. The conditions noted are these: compared to IL-1β-stimulated cells. As for the experimental part: as §1
(§2) RNA was isolated from chondrocytes in all groups after 2 days of treatment using an RNA isolation kit (Tiangen Biotechnology). […]
On the technique in general: Real-time PCR tracks product formation cycle by cycle.

For series [5], the system named is IL6. Briefly: qRT-PCR of IL6 in IL-1β stimulated chondrocytes. The format is cell-based, rat. The conditions noted are these: compared to IL-1β-stimulated cells. As for the experimental part: as §1, §2
Series [6] has as its system ADAMTS5. Briefly: qRT-PCR of ADAMTS5 in IL-1β stimulated chondrocytes. The format is cell-based, rat. Conditions: compared to IL-1β-stimulated cells. As for the experimental part:
as §1, §2

The subject of series [7] is COX-2. In words: qRT-PCR of COX-2 in IL-1β stimulated chondrocytes. The format is cell-based, rat. Conditions: compared to IL-1β-stimulated cells. The method, then: as §1, §2
The test system of series [8] is iNOS. In words: qRT-PCR of iNOS in IL-1β stimulated chondrocytes. Conditions: compared to IL-1β-stimulated cells. The format is cell-based, rat. The method, then: as §1, §2
Series [9] relates to Sprague-Dawley rats with surgery-induced OA. Briefly: Macroscopic evaluation of cartilage lesions in rat ACLT OA model. The format is in vivo. The method, then: In vivo analysis was performed in Sprague-Dawley rats which had undergone bilateral anterior cruciate ligament transection (ACTL) surgery. One month after the surgery, the animals were randomly sorted into six groups (n=24) and were i.a. injected once per week with the following regimens: SLFNP+HA (1.74 μg Li in 50 μL HA), SLFNP alone (1.74 μg Li in 50 μL PBS), LiCl+HA (3.48 μg Li in 50 μL HA), LiCl alone (3.48 μg in 50 μL PBS), HA alone (50 μL), and PBS (50 μL). For control, a sham-operated group was also studied.
Sprague Dawley Rats (SD rats) were obtained from Guangxi Medical University. […]
After 4 and 8 weeks of treatment, SD rats were sacrificed by intraperitoneal overdose of pentobarbital. […] The observers evaluated the depth of lesions of the articular cartilage on a scale of 0-4 (0=normal-appearing surface, 1=minimal fibrillation or a slight yellow discoloration of the surface, 2=erosion extending into the superficial or middle layers only, 3=erosion extending into the deep layers, and 4=erosion extending to the subchondral bone). The surface area of erosion was calculated with a digital caliper and presented them as mm2, with a higher score indicating greater cartilage damage.

For series [10] the test system is unchanged. In words: Histological evaluation (H&E, Safranin O-fast green, OARSI score) in rat ACLT OA model. The format is in vivo. The method, then: Sprague Dawley Rats (SD rats) were obtained from Guangxi Medical University. All experiments were conducted in accordance with the guidelines of the Animal Committee and with ethics approval from the Guangxi Medical University Animal Care and Use Committee, China (Protocol Number: 2015-11-27). A total of 152 male SD rats with a weight of 180±20 g were used. After anesthesia, 144 randomly selected rats underwent bilateral anterior cruciate ligament transection (ACLT) on the right knee joints to induce OA. Another 8 rats received sham operations (Sham group), in which the articular cavity was opened and sutured with the short anterior cruciate ligament intact. After surgery, all animals were returned to their cages, with the limbs not immobilized. One month after the surgery, the animals were randomly sorted into […] groups (n=24) and were i.a. injected once per week with the following regimens for 8 weeks: SLFNP+HA (1.74 μg Li in 50 μL 10 mg/mL HA), SLFNP alone (1.74 μg Li in […] PBS), LiCl+HA (3.48 μg Li in 50 μL 10 mg/mL HA), LiCl alone (3.48 μg in 50 μL PBS), HA alone (50 μL), and PBS (50 μL). In the sham groups, no other procedures were conducted. The animals in the six groups were sacrificed at 4 and 8 weeks after therapy (n=12). […]

The conditions of series [11]: in vivo; cited from earlier work.
For series [12] the following is noted: cited from earlier work.

`[Cl-].[Li+]` [LiCl, lithium chloride] registered a cell viability in series [1] of 80.77%. Further, the “positive ethidium homodimer-1 staining” value in series [2] is on record as “significantly reduced level of positive staining”. Besides, in series [3], the “MMP13 expression (immunofluorescence)” value is listed as “upregulation was attenuated”. Besides, the “reduction of mRNA level of MMP3” value in series [4] stood at 57.45%. In series [5], the “reduction of mRNA level of IL6” value worked out at 54.94%. Besides, the “reduction of mRNA level of ADAMTSS” value in [6] amounted to 59.77%. Besides, the “reduction of mRNA level of COX-2” value in series [7] stood at 68.29%. Further, the “reduction of mRNA level of iNOS” value in series [8] was 57.66%. Besides, the average lesion area in series [9] (Week 4, i.a. once per week) is recorded as 8.5 mm2; in series [9] (Week 8, i.a. once per week), 10.2 mm2. Besides, the “reduction of OARSI score compared to the PBS control” value was determined as 19.28% in series [10] (Week 4) and 11.95% in series [10] (Week 8).

Take hyaluronic acid [HA]: the “time for i.a. injected HA to fully degrade in the joint” value in series [11] was ~ 60 h.

For `[Li]` [lithium], the “serum lithium toxicity threshold” value in series [12] is on record as 1.5 mM.

For orientation: cell viability means a read-out of living cells in per cent, often relative to untreated cells. Read a high cell viability as less harm to the cells.

Values taken from patent US12708606B2 (UNIVERSITY OF GEORGIA RESEARCH FOUNDATION, INC., priority 2018, dated 2026).
